In ChEMBL document CHEMBL1201862, “PubChem BioAssay data set” (2004):
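Interpolation was linear, between the two tested concentrations surrounding the appropriate level; five concentrations were tested over 48 hours in 96-well plates. Here, GI50 denotes the concentration required for 50% inhibition of growth.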 The source made the active and inactive calls. No stated cut-off is given here; in the data, active = GI50 up to about 1.1 µM and inactive = higher.

Assays:
Assay in all cases: NCI anticancer screen, dose series, 48 h
NCI-H226 = tested on: NCI-H226
SK-OV-3 = tested on: SK-OV-3
EKVX = tested on: EKVX
786-0 = tested on: 786-0
OVCAR-5 = tested on: OVCAR-5
SW-620 = tested on: SW-620
M14 = tested on: M14
SF-295 = tested on: SF-295
COLO 205 = tested on: COLO 205
UACC-257 = tested on: UACC-257
LOX IMVI = tested on: LOX IMVI
NCI-H522 = tested on: NCI-H522
HCC 2998 = tested on: HCC 2998
SNB-19 = tested on: SNB-19
A549 = tested on: A549
SN12C = tested on: SN12C
CAKI-1 = tested on: CAKI-1

| Structure (SMILES) | GI50 (NCI-H226) | GI50 (SK-OV-3) | GI50 (EKVX) | GI50 (786-0) | GI50 (OVCAR-5) | GI50 (SW-620) | GI50 (M14) | GI50 (SF-295) | GI50 (COLO 205) | GI50 (UACC-257) | GI50 (LOX IMVI) | GI50 (NCI-H522) | GI50 (HCC 2998) | GI50 (SNB-19) | GI50 (A549) | GI50 (SN12C) | GI50 (CAKI-1) |
| --- | --- | --- | --- | --- | --- | --- | --- | --- | --- | --- | --- | --- | --- | --- | --- | --- | --- |
| CCOC(=O)C1(Br)S(=O)(=O)OCCOS1(=O)=O | > 100 µM (inactive) | > 100 µM (inactive) | > 100 µM (inactive) | > 100 µM (inactive) | > 100 µM (inactive) | > 100 µM (inactive) | > 100 µM (inactive) | > 100 µM (inactive) | > 100 µM (inactive) | > 100 µM (inactive) | > 100 µM (inactive) | > 100 µM (inactive) | > 100 µM (inactive) | > 100 µM (inactive) | > 100 µM (inactive) | > 100 µM (inactive) |  |
| CC(=O)Nc1ccc(SC#N)c2c(NC(C)=O)cccc12 | > 100 µM (inactive) | > 100 µM (inactive) | > 100 µM (inactive) | > 100 µM (inactive) | > 100 µM (inactive) | 43.1 µM (inactive) | > 100 µM (inactive) | > 100 µM (inactive) | > 68.4 µM (inactive) | > 100 µM (inactive) | 56.4 µM (inactive) | > 47.6 µM (inactive) | > 100 µM (inactive) | > 100 µM (inactive) | > 100 µM (inactive) | > 100 µM (inactive) | > 65 µM (inactive) |
| CCOC(=O)C1=C(O)C(=O)c2ccccc2C1=O | 48.3 µM (inactive) | > 100 µM (inactive) | > 100 µM (inactive) | > 100 µM (inactive) | > 100 µM (inactive) | > 100 µM (inactive) | > 100 µM (inactive) | 96.6 µM (inactive) | > 100 µM (inactive) | > 100 µM (inactive) | 85.1 µM (inactive) | > 100 µM (inactive) | > 100 µM (inactive) | 40.9 µM (inactive) | > 100 µM (inactive) | > 100 µM (inactive) | > 100 µM (inactive) |
| CC(=O)OCCOCNC(=S)N/N=C/c1ccc([N+](=O)[O-])s1 | > 100 µM (inactive) | > 100 µM (inactive) | 55.5 µM (inactive) | > 100 µM (inactive) | 37.3 µM (inactive) | 30.5 µM (inactive) | 40 µM (inactive) | 40.4 µM (inactive) | 2.08 µM (inactive) | 23.8 µM (inactive) | 33.4 µM (inactive) | 11.2 µM (inactive) | 43.2 µM (inactive) | > 100 µM (inactive) | 43.4 µM (inactive) | 36.4 µM (inactive) |  |
| CC1CCCC2(O1)OC1CC(=O)OC1C1=C2C(=O)c2ccccc2C1=O (stereo unspecified) | 1.3 µM (inactive) | 16.4 µM (inactive) | 3.87 µM (inactive) | 2.14 µM (inactive) | 19.9 µM (inactive) | 1.67 µM (inactive) | 2.79 µM (inactive) | 17.6 µM (inactive) | 2.02 µM (inactive) | 1.81 µM (inactive) | 2.64 µM (inactive) | 1.6 µM (inactive) | 2.37 µM (inactive) | 15.6 µM (inactive) | 16.9 µM (inactive) | 2.18 µM (inactive) | 2.84 µM (inactive) |
| O=C(O)C12CC3CC(CC(F)(C3)C1)C2 |  | > 100 µM (inactive) | > 100 µM (inactive) | > 100 µM (inactive) | > 100 µM (inactive) | > 100 µM (inactive) | > 100 µM (inactive) |  | > 100 µM (inactive) | > 100 µM (inactive) | > 100 µM (inactive) | > 100 µM (inactive) | > 100 µM (inactive) |  | > 100 µM (inactive) |  |  |
| CCOC(=N)CC(=O)Nc1cccc(C)c1C | > 100 µM (inactive) | > 100 µM (inactive) | > 100 µM (inactive) | > 100 µM (inactive) | > 100 µM (inactive) | > 100 µM (inactive) | > 100 µM (inactive) | > 100 µM (inactive) | > 100 µM (inactive) | > 100 µM (inactive) | > 100 µM (inactive) | > 100 µM (inactive) | > 100 µM (inactive) | > 100 µM (inactive) | > 100 µM (inactive) | > 100 µM (inactive) | > 100 µM (inactive) |
| COc1ccccc1NC(=O)C1=C(C)NC(C)=C(C(=O)Nc2ccccc2OC)C1c1ccccc1Cl | > 100 µM (inactive) | > 100 µM (inactive) | 53.5 µM (inactive) | > 100 µM (inactive) | > 100 µM (inactive) | > 100 µM (inactive) | 91 µM (inactive) | > 100 µM (inactive) | > 100 µM (inactive) | > 100 µM (inactive) | > 100 µM (inactive) |  | > 100 µM (inactive) | > 100 µM (inactive) | 41.6 µM (inactive) | > 100 µM (inactive) | > 100 µM (inactive) |
| CCCCCCCCCCCCCCCC(=O)N[C@H]1CCc2cc(OC)c(OC)c(OC)c2-c2ccc(SC)c(=O)cc21 | 0.196 µM (active) | 1.67 µM (inactive) | 0.454 µM (active) | 2.36 µM (inactive) | 15.2 µM (inactive) | 0.45 µM (active) | 0.279 µM (active) | 0.664 µM (active) | 0.187 µM (active) | 0.527 µM (active) | 2.45 µM (inactive) |  | 0.297 µM (active) | 0.973 µM (active) | 0.486 µM (active) | 0.649 µM (active) | 21.1 µM (inactive) |
| Cc1ccc(C(=O)N2c3ccccc3N(C)n3cccc3C2CC(=O)O)cc1 (stereo unspecified) | > 100 µM (inactive) |  | > 100 µM (inactive) | > 100 µM (inactive) | > 100 µM (inactive) | > 100 µM (inactive) | > 100 µM (inactive) | > 100 µM (inactive) | > 100 µM (inactive) | > 100 µM (inactive) | > 100 µM (inactive) | > 100 µM (inactive) | > 100 µM (inactive) | > 100 µM (inactive) | > 100 µM (inactive) | > 100 µM (inactive) | > 100 µM (inactive) |
| CN1COCN/C1=N/C#N | > 100 µM (inactive) | > 100 µM (inactive) | > 100 µM (inactive) |  | > 100 µM (inactive) | > 100 µM (inactive) | > 100 µM (inactive) | > 100 µM (inactive) | > 100 µM (inactive) | > 100 µM (inactive) | > 100 µM (inactive) | > 100 µM (inactive) | > 100 µM (inactive) | > 100 µM (inactive) | > 100 µM (inactive) | > 100 µM (inactive) | > 100 µM (inactive) |
| C/N=c1/ss/c(=N\C(SC)=[N+](C)C)n1C.[O-][Cl+3]([O-])([O-])[O-] | > 100 µM (inactive) | > 100 µM (inactive) | 80.7 µM (inactive) | > 100 µM (inactive) | > 100 µM (inactive) | > 100 µM (inactive) | > 100 µM (inactive) | > 100 µM (inactive) |  | > 100 µM (inactive) | > 100 µM (inactive) | 14.8 µM (inactive) | > 100 µM (inactive) | > 100 µM (inactive) | > 100 µM (inactive) | > 100 µM (inactive) | 54.8 µM (inactive) |
| COc1ccc(N2C(=O)/C(=C(\C)c3cc4ccccc4oc3=O)N=C2c2cc([N+](=O)[O-])ccc2Cl)cc1 | > 100 µM (inactive) | 57.7 µM (inactive) | > 100 µM (inactive) |  | > 100 µM (inactive) | 33.9 µM (inactive) | 23.6 µM (inactive) | 17.1 µM (inactive) | 43.9 µM (inactive) | 44 µM (inactive) | 34.5 µM (inactive) | 11.5 µM (inactive) | 43.5 µM (inactive) | 32.7 µM (inactive) | 34.9 µM (inactive) | 35 µM (inactive) | 29.6 µM (inactive) |
| O=C1C[S+]([O-])c2ccccc2N1 (stereo unspecified) | > 100 µM (inactive) | > 100 µM (inactive) | > 100 µM (inactive) | > 100 µM (inactive) | > 100 µM (inactive) |  | > 100 µM (inactive) | > 100 µM (inactive) | 30.8 µM (inactive) | > 100 µM (inactive) | 52.6 µM (inactive) | > 100 µM (inactive) | > 100 µM (inactive) | > 100 µM (inactive) | > 100 µM (inactive) | > 100 µM (inactive) | > 100 µM (inactive) |
| Cc1c(C)c2ccc(OC(C)C(=O)O)cc2oc1=O (stereo unspecified) | > 100 µM (inactive) | > 100 µM (inactive) | > 100 µM (inactive) | > 100 µM (inactive) |  | > 100 µM (inactive) | > 100 µM (inactive) | > 100 µM (inactive) | > 100 µM (inactive) | > 100 µM (inactive) | > 100 µM (inactive) | > 100 µM (inactive) | > 100 µM (inactive) | > 100 µM (inactive) | > 100 µM (inactive) | > 100 µM (inactive) | > 100 µM (inactive) |
| C/C=C/C(=O)[C@@H](O)C(C)C | > 100 µM (inactive) | > 100 µM (inactive) | > 100 µM (inactive) | > 100 µM (inactive) | > 100 µM (inactive) | > 100 µM (inactive) |  | > 100 µM (inactive) | > 100 µM (inactive) | > 100 µM (inactive) |  | > 100 µM (inactive) | > 100 µM (inactive) | > 100 µM (inactive) | > 100 µM (inactive) | > 100 µM (inactive) | > 100 µM (inactive) |
| O=C1C(c2ccccc2)=C(c2ccccc2)C(c2ccccc2)/C1=C1\C(=O)C(c2ccccc2)=C(c2ccccc2)C1c1ccccc1 (stereo unspecified) | > 100 µM (inactive) | > 100 µM (inactive) | > 100 µM (inactive) | > 100 µM (inactive) | > 100 µM (inactive) | > 100 µM (inactive) | 41.9 µM (inactive) | > 100 µM (inactive) | > 100 µM (inactive) | > 100 µM (inactive) | > 100 µM (inactive) | > 100 µM (inactive) | > 100 µM (inactive) |  | > 100 µM (inactive) | > 100 µM (inactive) | > 100 µM (inactive) |
